Measured values from patent US11446298B2, “Pyrimidine derivatives” (Idorsia Pharmaceuticals Ltd, priority 2017, dated 2022).

Tests used:
Format in all cases: cell-based
[1] = biological target: T1, EP4 (Homo sapiens, UniProt P35408); experiment: hEP4 cAMP Assay (BT549 breast cancer cells, HTRF cAMP, PGE2 6 nM); details: antagonistic activity, PGE2 6 nM (EC80)
T1 construct: BT549 breast cancer cells, express high endogenous EP4 levels and very low EP2 levels; host or cells: BT549 breast cancer cells
Summary of the method: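 BT549 cells (endogenous EP4, very low EP2) in HBSS/20 mM HEPES/0.2% BSA/2 mM IBMX, pre-incubated 45 min RT with compound, then stimulated 30 min RT with PGE2 6 nM (EC80). cAMP read by HTRF competitive immunoassay (665/620 nm), converted via calibrator to % of DMSO control; IC50 from duplicate dose-response curves.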

[2] = biological target: T2, PTGER2 (EP2) (Homo sapiens, UniProt P43116); experiment: hEP2 b-Arrestin Assay (PathHunter HEK 293 PTGER2 b-arrestin cells, PGE2 5 μM); details: antagonistic activity, beta-arrestin assay, HEK 293 PTGER2 cells, PGE2 5 μM (EC80); read-out: hEP2 b-arr IC50
T2 construct: host or cells: HEK 293 (PathHunter, stably transfected)
Summary of the method: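 PathHunter enzyme-fragment complementation in HEK 293 cells: compounds (10 μM-2 nM or 1 μM-0.2 nM) pre-incubated 15 min at 37 °C, then 5 μM PGE2 (EC80) for 120 min at 37 °C. Chemiluminescence read after 1 h detection; IC50 from duplicate dose-response fits, means of repeats.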

[3] = biological target: T3, EP2 (Homo sapiens, UniProt P43116); experiment: hEP2 cAMP Assay (SF295 glioblastoma cells, HTRF cAMP, PGE2 75 nM); details: antagonistic activity, PGE2 75 nM (EC80)
T3 construct: SF295 glioblastoma cells express high endogenous EP2 and no EP4; host or cells: SF295 glioblastoma cells
Summary of the method: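 IC50 values derive from duplicate-point curves of percent cAMP relative to DMSO, read by HTRF (665/620 nm) against a cAMP calibrator. Compounds (30 μM to 0.01 nM ranges) were given 45 min at room temperature before 30 min with 75 nM PGE2, in EP2-only SF295 cells with 2 mM IBMX.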

[4] = biological target: T4, PTGER4 (EP4) (Homo sapiens, UniProt P35408); experiment: hEP4 b-Arrestin Assay (PathHunter HEK 293 PTGER4 b-arrestin cells, PGE2 20 nM); details: antagonistic activity, beta-arrestin assay, HEK 293 PTGER4 cells, PGE2 20 nM (EC80); read-out: hEP4 b-arr IC50
T4 construct: host or cells: HEK 293 (PathHunter, stably transfected)
Experimental: The antagonistic activities of the compounds of formula (I) on the EP2 and EP4 receptors are also determined in accordance with the following experimental method.
The assay is using the PathHunter™ HEK 293 PTGER2 and PTGER4 b-arrestin cell lines from DiscoverX. The system is based on the Enzyme Fragment Complementation Technology. Two complementing fragments of the b-galactosidase enzyme are expressed within stably transfected cells. The larger portion of b-gal, termed EA for Enzyme Acceptor, is fused to the C-terminus of b-arrestin 2. The smaller fragment, termed ProLink™ tag, is fused to PTGER2 (EP2) or PTRGER4 (EP4) at the C-terminus. Upon activation, b-arrestin is recruited which forces the interaction of ProLink and EA, allowing complementation of the two fragments of b-gal and the formation of a functional enzyme which is capable of hydrolysing the substrate and generating a chemiluminescent signal.
The HEK 293 PTGER4 b-arrestin cells (DiscoverX 93-030-4C1) are detached from culture dishes with a cell dissociation buffer (Invitrogen, 13151-014), and collected in growing medium (GM: DMEM+Glutamax-I (Invitrogen 32430)/10% FCS, 1% Penicilin/streptomycin). 5000 cells per well of a 384 well plate (white with white bottom Greiner 781080) are seeded in 20 ul per well of GM. Plate is incubated at 37° C., 5% CO2 for 24 hours.
Stock solutions of test compounds are made at a concentration of 10 mM in DMSO, and serially diluted in DMSO to concentrations required for inhibition dose response curves (tested concentration range 10 μM-2 nM or 1 μM-0.2 nM).
PGE2 (Cayman 14010, stock solution: 100 μM in DMSO) is used as agonist at 20 nM final concentration, corresponding to EC80.
Five microliters of diluted compounds are transferred into the assay plate. Plate is pre-incubated 15 minutes at 37° C. Then five microliters of PGE2 (final conc. 20 nM) are transferred into the assay plate. Plate is incubated 120 minutes at 37° C.
PathHunter Glo Detection Kit components are thawed and mix according to manufacturer's instructions: 1 part Galacton Star Substrate with 5 parts Emerald II™ Solution, and 19 parts of PathHunter Cell Assay Buffer, respectively. Twelve μl of reagent are transferred to the assay plate and incubate for 1 hour at room temperature in the dark. Luminescence counts are read on a BMG Fluostar Optima reader according to manufacturer's instructions.
For each compound concentration calculate of the percentage of activity compared to DMSO control value as average ±STDEV. (each concentration is measured in duplicate)
IC50 values and curves are generated with XLfit software (IDBS) using Dose-Response One Site model 203. When compounds were measured multiple times, mean values are given.

T1 sequence (P35408 whole entry): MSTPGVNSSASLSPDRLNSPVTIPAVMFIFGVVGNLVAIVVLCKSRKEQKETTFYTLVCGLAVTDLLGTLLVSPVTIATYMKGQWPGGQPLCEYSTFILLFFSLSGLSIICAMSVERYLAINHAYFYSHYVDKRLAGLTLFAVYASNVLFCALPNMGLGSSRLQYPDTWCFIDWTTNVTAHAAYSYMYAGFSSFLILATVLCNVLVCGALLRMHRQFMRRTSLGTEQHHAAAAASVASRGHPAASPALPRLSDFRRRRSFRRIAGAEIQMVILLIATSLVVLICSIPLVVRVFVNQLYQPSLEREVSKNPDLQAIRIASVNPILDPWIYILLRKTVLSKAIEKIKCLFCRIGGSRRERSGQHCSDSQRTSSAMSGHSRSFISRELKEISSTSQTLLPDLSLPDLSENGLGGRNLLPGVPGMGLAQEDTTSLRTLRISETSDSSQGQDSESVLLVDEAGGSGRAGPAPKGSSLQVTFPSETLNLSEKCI
T4 sequence (P35408 whole entry): as above
T3 sequence (P43116 whole entry): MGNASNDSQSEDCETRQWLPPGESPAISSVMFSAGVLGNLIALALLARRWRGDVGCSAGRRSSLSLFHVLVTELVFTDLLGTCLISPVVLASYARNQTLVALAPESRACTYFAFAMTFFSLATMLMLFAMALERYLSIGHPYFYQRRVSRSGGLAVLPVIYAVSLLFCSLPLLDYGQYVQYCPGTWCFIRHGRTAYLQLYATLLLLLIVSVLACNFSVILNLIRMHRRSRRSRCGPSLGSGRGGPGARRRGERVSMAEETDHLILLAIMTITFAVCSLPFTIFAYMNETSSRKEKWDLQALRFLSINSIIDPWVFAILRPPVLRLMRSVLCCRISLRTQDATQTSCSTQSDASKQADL
T2 sequence (P43116 whole entry): as above

## CCOc1cc(-c2cc(NCCc3c(C)ccc4ccccc34)ncn2)sc1C(=O)O [Example 1, 3-Ethoxy-5-{6-[2-(2-methyl-naphthalen-1-yl)-ethylamino]-pyrimidin-4-yl}-thiophene-2-carboxylic acid]
[1]
  IC50: 47 nM
[2]
  IC50: 5 nM
[3]
  IC50: 4 nM
[4]
  IC50: 177 nM

## CCOc1cc(-c2cc(NCCc3c(C)ccc4ncccc34)ncn2)sc1C(=O)O [Example 2, 3-Ethoxy-5-{6-[2-(6-methyl-quinolin-5-yl)-ethylamino]-pyrimidin-4-yl}-thiophene-2-carboxylic acid]
[1]
  IC50: 100 nM
[2]
  IC50: 27 nM
[3]
  IC50: 47 nM
[4]
  IC50: 311 nM

## CCOc1cc(-c2cc(NCCc3c(OC)ccc4ccccc34)ncn2)sc1C(=O)O [Example 4, 3-Ethoxy-5-{6-[2-(2-methoxy-naphthalen-1-yl)-ethylamino]-pyrimidin-4-yl}-thiophene-2-carboxylic acid]
[1]
  IC50: 15 nM
[2]
  IC50: 2 nM
[3]
  IC50: 2 nM
[4]
  IC50: 20 nM

## COc1ccc2ccccc2c1CCNc1cc(-c2ccc(C(=O)O)c(OC3CCC3)c2)ncn1 [Example 5, 2-Cyclobutoxy-4-{6-[2-(2-methoxy-naphthalen-1-yl)-ethylamino]-pyrimidin-4-yl}-benzoic acid]
[1]
  IC50: 203 nM
[2]
  IC50: 25 nM
[3]
  IC50: 24 nM
[4]
  IC50: 182 nM

## CCOc1cc(-c2cc(NCCc3cccc4ccccc34)ncn2)ccc1C(=O)O [Example 6, 2-Ethoxy-4-[6-(2-naphthalen-1-yl-ethylamino)-pyrimidin-4-yl]-benzoic acid]
[1]
  IC50: 910 nM
[2]
  IC50: 85 nM
[3]
  IC50: 95 nM
[4]
  IC50: 1690 nM

## CCOc1cc(-c2cc(NCCc3cccc4ccccc34)ncn2)sc1C(=O)O [Example 9, 3-Ethoxy-5-[6-(2-naphthalen-1-yl-ethylamino)-pyrimidin-4-yl]-thiophene-2-carboxylic acid]
[1]
  IC50: 14 nM
[2]
  IC50: 11 nM
[3]
  IC50: 9 nM
[4]
  IC50: 56 nM

## CCOc1cc(-c2cc(NCCc3c(C)c(C)cc4ccccc34)ncn2)sc1C(=O)O [Example 12, 5-{6-[2-(2,3-Dimethyl-naphthalen-1-yl)-ethylamino]-pyrimidin-4-yl}-3-ethoxy-thiophene-2-carboxylic acid]
[1]
  IC50: 17 nM
[2]
  IC50: 27 nM
[3]
  IC50: 17 nM
[4]
  IC50: 52 nM

## CCOc1cc(-c2cc(NCCc3c(OC)ccc4nc(C)ccc34)ncn2)sc1C(=O)O [Example 13, 3-Ethoxy-5-{6-[2-(6-methoxy-2-methyl-quinolin-5-yl)-ethylamino]-pyrimidin-4-yl}-thiophene-2-carboxylic acid]
[1]
  IC50: 138 nM
[2]
  IC50: 25 nM
[3]
  IC50: 24 nM
[4]
  IC50: 225 nM

## CCOc1cc(-c2cc(NCCc3c(OC)ccc4c3ccn4C)ncn2)ccc1C(=O)O [Example 186, 2-Ethoxy-4-{6-[2-(5-methoxy-1-methyl-1H-indol-4-yl)-ethylamino]-pyrimidin-4-yl}-benzoic acid]
[2]
  IC50: 9 nM
[4]
  IC50: 500 nM

## CCOc1cc(-c2cc(NCCc3c(OCC)ccc4sccc34)ncn2)ccc1C(=O)O [Example 187, 2-Ethoxy-4-{6-[2-(5-ethoxy-benzo[b]thiophen-4-yl)-ethylamino]-pyrimidin-4-yl}-benzoic acid]
[2]
  IC50: 10 nM
[4]
  IC50: 563 nM

## CCOc1cc(-c2cc(NCCc3c(OC)ccc4ccccc34)ncn2)ccc1-c1noc(=S)[nH]1 [Example 189, 3-(2-Ethoxy-4-{6-[2-(2-methoxy-naphthalen-1-yl)-ethylamino]-pyrimidin-4-yl}-phenyl)-[1,2,4]-oxadiazole-5(4H)-thione]
[2]
  IC50: 5 nM
[4]
  IC50: 16 nM

## CCOc1cc(-c2cc(NCCc3c(OC)ccc4ccccc34)ncn2)ccc1Cc1noc(=O)[nH]1 [Example 191, 3-(2-Ethoxy-4-{6-[2-(2-methoxy-naphthalen-1-yl)-ethylamino]-pyrimidin-4-yl}-benzyl)-[1,2,4]oxadiazol-5(4H)-one]
[2]
  IC50: 23 nM
[4]
  IC50: 219 nM
